These are literature values, as cited in US20170348252A1, “Preparation and Use of Ketamine Derivatives and Ketamine Modifiers in the Treatment of Pain” (priority 2016, published 2017).

Structures are written as SMILES.

The conditions of the series: relative to thiopental; from Anirudda Pai et al. 2007.

Regarding `CNC1(c2ccccc2Cl)CCCCC1=O` (racemic) [Ketamine, 2-(2-chlorophenyl)-2-methylamino cyclohexanone], the lipid solubility was 5-10 times that of thiopental.
